We go through ten compounds from patent US11655235B2, “Pyrrolidine and piperidine compounds” (YUHAN CORPORATION, priority 2019, dated 2023).

pIC50: −log10 of the molar value.

What all share (assay type): biochemical
Assay [1] concerns the target T1, recombinant human PREP (Homo sapiens, UniProt P48147).
T1 construct: purchased R&D System
T1 sequence (P48147 1-710): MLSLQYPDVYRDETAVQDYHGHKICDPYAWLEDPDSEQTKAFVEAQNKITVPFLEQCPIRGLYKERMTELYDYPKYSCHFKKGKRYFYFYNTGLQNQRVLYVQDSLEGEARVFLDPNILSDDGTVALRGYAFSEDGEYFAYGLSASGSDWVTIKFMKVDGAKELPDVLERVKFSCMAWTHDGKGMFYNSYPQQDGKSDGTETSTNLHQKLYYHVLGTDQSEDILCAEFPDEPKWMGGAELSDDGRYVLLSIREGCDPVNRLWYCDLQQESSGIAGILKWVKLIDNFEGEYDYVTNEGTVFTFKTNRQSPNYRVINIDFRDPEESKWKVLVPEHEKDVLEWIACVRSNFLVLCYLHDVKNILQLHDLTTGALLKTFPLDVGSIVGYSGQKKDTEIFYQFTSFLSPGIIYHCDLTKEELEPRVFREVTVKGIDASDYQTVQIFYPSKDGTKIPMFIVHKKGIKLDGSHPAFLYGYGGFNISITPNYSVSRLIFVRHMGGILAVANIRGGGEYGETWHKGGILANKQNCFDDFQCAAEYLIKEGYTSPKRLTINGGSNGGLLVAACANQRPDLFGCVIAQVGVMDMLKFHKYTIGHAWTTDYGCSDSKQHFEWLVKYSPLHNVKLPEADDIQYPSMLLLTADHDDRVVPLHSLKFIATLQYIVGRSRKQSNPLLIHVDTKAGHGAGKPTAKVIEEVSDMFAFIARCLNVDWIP
The assay is described as follows: PREP inhibition, fluorogenic substrate Z-Gly-Pro-AMC. Conditions: Inhibitory Activity (IC50, nM) PREP, recombinant human PREP. In short, it runs like this: (§1)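 Enzyme per reaction: 50 ng DPP9, 20 ng DPP8, 10 ng each DPP7 and PREP. Compounds were serially diluted (8 points, up to 0.5% DMSO) and incubated at 25 °C.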

Assay [2] has as its target T2, recombinant human DPP9 (Homo sapiens, UniProt Q86TI2).
T2 construct: purchased R&D Systems
The assay can be described thus: DPP9 inhibition, fluorogenic substrate H-Gly-Pro-AMC. Conditions: recombinant human DPP9. The method in brief:
as §1

For assay [3], the target named is T3, recombinant human DPP7 (Homo sapiens, UniProt Q9UHL4).
T3 construct: purchased R&D Systems
The assay can be described thus: DPP7 inhibition, fluorogenic substrate Lys-Pro-AMC. Conditions: recombinant human DPP7. The method in brief:
as §1

Assay [4] has as its target DPP4 (Homo sapiens, UniProt P27487). The assay is described as follows: DPP4 inhibition, fluorogenic substrate H-Gly-Pro-AMC. The arrangement: purchased R&D Systems. The settings on record: recombinant human DPP4.
For assay [5], the target named is T4, Recombinant human FAP (Homo sapiens, UniProt Q12884).
T4 construct: purchased R&D systems
T4 sequence (Q12884 1-760): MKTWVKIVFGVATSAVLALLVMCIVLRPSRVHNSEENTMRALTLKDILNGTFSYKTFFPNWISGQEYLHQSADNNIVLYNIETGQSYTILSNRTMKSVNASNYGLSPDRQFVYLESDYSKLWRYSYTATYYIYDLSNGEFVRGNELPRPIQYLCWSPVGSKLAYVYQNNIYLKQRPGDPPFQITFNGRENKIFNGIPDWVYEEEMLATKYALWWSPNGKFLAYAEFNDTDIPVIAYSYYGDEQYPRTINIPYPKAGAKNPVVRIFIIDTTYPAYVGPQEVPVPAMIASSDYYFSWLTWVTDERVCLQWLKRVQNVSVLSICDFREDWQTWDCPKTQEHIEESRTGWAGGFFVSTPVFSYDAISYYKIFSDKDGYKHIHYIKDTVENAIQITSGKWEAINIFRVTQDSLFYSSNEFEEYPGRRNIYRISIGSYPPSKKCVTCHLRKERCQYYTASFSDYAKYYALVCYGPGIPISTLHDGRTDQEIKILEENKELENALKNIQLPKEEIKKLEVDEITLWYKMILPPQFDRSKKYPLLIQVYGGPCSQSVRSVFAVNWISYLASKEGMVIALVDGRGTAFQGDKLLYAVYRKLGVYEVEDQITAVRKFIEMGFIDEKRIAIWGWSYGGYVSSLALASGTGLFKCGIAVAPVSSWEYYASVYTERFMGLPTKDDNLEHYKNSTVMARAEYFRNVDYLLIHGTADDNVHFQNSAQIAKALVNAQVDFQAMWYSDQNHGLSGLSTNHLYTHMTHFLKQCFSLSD
The assay can be described thus: FAP FRET assay, FGF21-sequence FRET peptide substrate. Conditions: FRET peptide with human FGF21 sequence, 6 μM, 37° C. In short, it runs like this:
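Recombinant human FAP, 10 ng per reaction, in 50 mM HEPES pH 7.2 with 150 mM NaCl, 0.1 mg/ml BSA, 1 mM EDTA; HyLite Fluor 488/QXL 520 FRET peptide of human FGF21 sequence at 6 μM final, ≤0.1% DMSO, 37° C. IC50 from 8-point curves by four-parameter logistic fit.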

T2 sequence (Q86TI2 whole entry): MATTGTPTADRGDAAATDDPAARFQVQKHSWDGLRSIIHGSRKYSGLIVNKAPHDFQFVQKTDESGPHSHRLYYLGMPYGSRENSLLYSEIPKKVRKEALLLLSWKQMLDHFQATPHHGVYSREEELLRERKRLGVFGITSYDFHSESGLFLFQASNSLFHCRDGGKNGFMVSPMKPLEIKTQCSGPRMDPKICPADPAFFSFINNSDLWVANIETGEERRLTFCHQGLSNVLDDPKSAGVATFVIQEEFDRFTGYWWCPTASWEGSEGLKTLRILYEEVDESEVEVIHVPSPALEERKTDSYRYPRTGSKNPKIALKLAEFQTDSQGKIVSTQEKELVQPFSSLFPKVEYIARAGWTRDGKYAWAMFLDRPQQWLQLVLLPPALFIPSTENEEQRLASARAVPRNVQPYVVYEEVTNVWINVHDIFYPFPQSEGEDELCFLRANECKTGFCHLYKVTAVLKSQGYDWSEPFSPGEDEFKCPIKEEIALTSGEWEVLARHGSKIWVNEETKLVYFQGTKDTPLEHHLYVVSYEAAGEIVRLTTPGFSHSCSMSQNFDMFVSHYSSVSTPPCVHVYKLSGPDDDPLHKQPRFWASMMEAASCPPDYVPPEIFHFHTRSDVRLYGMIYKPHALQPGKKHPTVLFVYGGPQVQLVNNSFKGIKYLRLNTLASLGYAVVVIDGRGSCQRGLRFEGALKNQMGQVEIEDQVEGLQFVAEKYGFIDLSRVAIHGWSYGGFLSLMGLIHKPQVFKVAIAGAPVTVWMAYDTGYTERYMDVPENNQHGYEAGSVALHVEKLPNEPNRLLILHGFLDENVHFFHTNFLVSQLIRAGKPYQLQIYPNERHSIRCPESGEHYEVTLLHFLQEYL
Sequence of DPP4 (P27487 whole entry): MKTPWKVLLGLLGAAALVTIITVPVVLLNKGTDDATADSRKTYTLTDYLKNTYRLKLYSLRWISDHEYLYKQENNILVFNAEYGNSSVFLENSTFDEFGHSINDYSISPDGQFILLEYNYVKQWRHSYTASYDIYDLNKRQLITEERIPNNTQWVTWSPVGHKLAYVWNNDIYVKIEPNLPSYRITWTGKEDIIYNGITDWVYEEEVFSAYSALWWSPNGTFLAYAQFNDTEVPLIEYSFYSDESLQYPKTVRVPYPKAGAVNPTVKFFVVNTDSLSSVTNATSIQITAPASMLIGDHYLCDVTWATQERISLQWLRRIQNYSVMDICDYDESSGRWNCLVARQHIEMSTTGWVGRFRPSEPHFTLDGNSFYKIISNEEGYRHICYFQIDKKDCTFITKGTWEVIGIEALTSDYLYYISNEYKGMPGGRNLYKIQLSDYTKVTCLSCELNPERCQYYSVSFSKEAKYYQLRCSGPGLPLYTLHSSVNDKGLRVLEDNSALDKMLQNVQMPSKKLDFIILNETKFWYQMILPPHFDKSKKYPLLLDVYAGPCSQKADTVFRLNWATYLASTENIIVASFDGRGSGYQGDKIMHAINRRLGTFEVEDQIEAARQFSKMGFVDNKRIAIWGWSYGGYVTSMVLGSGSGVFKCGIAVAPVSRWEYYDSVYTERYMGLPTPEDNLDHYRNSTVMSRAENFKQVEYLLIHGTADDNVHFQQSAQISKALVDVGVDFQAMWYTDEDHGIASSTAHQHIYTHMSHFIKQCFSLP

For `CCN(c1ccc2ncccc2c1)C1CCN(CC(=O)N2C[C@@H](F)C[C@H]2C#N)CC1` [Example 306, (2S,4S)-1-[2-[4-[ethyl(6-quinolyl)amino]-1-piperidyl]acetyl]-4-fluoro-pyrrolidine-2-carbonitrile], the IC50 in assay [1] came out at 129 nM. In addition, the pIC50 was 4.88 in assay [2], 6.32 in assay [3], 4.62 in assay [4] and 8.36 in assay [5].
Consider `CCOc1ccc(NC2CCN(CC(=O)N3C[C@@H](F)C[C@H]3C#N)CC2)c2cccnc12` [Example 371, (2S,4S)-1-[2-[4-[(8-ethoxy-5-quinolyl)amino]-1-piperidyl]acetyl]-4-fluoro-pyrrolidine-2-carbonitrile], for which the IC50 in assay [1] came to 4910 nM. Also, the pIC50 in assay [2] was 5.28; in assay [3] it was 6.51; in assay [4], 5.34; in assay [5], 8.15.
In the same order, the values of `N#C[C@@H]1C[C@H](F)CN1C(=O)CN1CCC(Nc2cccc3ncsc23)CC1` [Example 372, (2S,4S)-1-[2-[4-(1,3-benzothiazol-7-ylamino)-1-piperidyl]acetyl]-4-fluoro-pyrrolidine-2-carbonitrile] are 2000 nM, 6.02, 6.19, 5.78 and 7.29.
For `N#C[C@@H]1C[C@H](F)CN1C(=O)CN1CCC(Nc2cc(Cl)c3ncccc3c2)CC1` [Example 376, (2S,4S)-1-[2-[4-[(8-chloro-6-quinolyl)amino]-1-piperidyl]acetyl]-4-fluoro-pyrrolidine-2-carbonitrile], the IC50 in assay [1] was determined as 870 nM. In addition, the pIC50 in assay [2] was 5.36; in assay [3], 6.65; in assay [4], 5.45; in assay [5] it was 8.15.
In the same order, the values of `CNC(=O)c1ccc(NC2CCN(CC(=O)N3C[C@@H](F)C[C@H]3C#N)CC2)c2cccnc12` [Example 390, N-methyl-5-[[1-[2-oxo-2-[(2S,4S)-2-cyano-4-fluoro-pyrrolidin-1-yl]ethyl]-4-piperidyl]amino]quinoline-8-carboxamide] are 1420 nM, 5.88, 6.45, 5.82 and 8.23.
With `N#C[C@@H]1C[C@H](F)CN1C(=O)CN1CCC(Nc2ccc(C(=O)Nc3ccccc3)c3ncccc23)CC1` [Example 394, 5-[[1-[2-oxo-2-[(2S,4S)-2-cyano-4-fluoro-pyrrolidin-1-yl]ethyl]-4-piperidyl]amino]-N-phenyl-quinoline-8-carboxamide], the IC50 in assay [1] came out at 421 nM. Further, the pIC50 was 5.96 in assay [2], 6.44 in assay [3], 5.59 in assay [4] and 8.89 in assay [5].
In the same order, the values of `N#C[C@@H]1CCCN1C(=O)CN1CCC(Nc2ccc(C(=O)Nc3ccccc3)c3ncccc23)CC1` [Example 396, 5-[[1-[2-oxo-2-[(2S)-2-cyanopyrrolidin-1-yl]ethyl]-4-piperidyl]amino]-N-phenyl-quinoline-8-carboxamide] are 1770 nM, 5.13, 6.06, 4.78 and 8.51.
As for `CC(=O)Nc1ccc(NC2CCN(CC(=O)N3C[C@@H](F)C[C@H]3C#N)CC2)c2cccnc12` [Example 409, N-[5-[[1-[2-oxo-2-[(2S,4S)-2-cyano-4-fluoro-pyrrolidin-1-yl]ethyl]-4-piperidyl]amino]-8-quinolyl]acetamide], the IC50 in assay [1] stood at 1630 nM. The pIC50 in assay [2] is 5.73; in assay [3] it was 7.20; in assay [4] it was 5.88; in assay [5], 8.12.
The like results for `N#C[C@@H]1C[C@H](F)CN1C(=O)CN1CCC(Oc2cccc3ncccc23)CC1` [Example 425, (2S,4S)-4-fluoro-1-[2-[4-(5-quinolyloxy)-1-piperidyl]acetyl]pyrrolidine-2-carbonitrile] were, in that order, 1330 nM, 4.47, 5.67, 5.14 and 8.15.
The like results for `COc1ccc2nccc(OC3CCN(CC(=O)N4CCC[C@H]4C#N)CC3)c2c1` [Example 426, (2S)-1-[2-[4-[(6-methoxy-4-quinolyl)oxy]-1-piperidyl]acetyl]pyrrolidine-2-carbonitrile] were, in that order, 10800 nM, ≤ 4.00, 5.03, 4.26 and 8.41.
